As a reminder, the Ki is a dissociation constant, usually derived from enzyme kinetics or from competition with a known ligand. A word on the pKi: it is the Ki on a negative log10 scale, so that one unit is a factor of ten.

The text below walks through data of ChEMBL document CHEMBL2439979 (Bioorg Med Chem Lett, 2013).

Test [1] addresses Muscarinic acetylcholine receptor. Nature of the test: Binding affinity to muscarinic M1/M5 receptor (unknown origin). It is filed as protein assay, Homo sapiens.
Test [2] concerns the target Neuronal acetylcholine receptor subunit alpha-7 (Homo sapiens, UniProt P36544). The test can be described thus: Binding affinity to alpha7 nAChR (unknown origin).
In test [3] the target is Neuronal acetylcholine receptor; alpha4/beta2 (Homo sapiens, UniProt P17787+P43681). Nature of the test: Binding affinity to alpha4beta2 nAChR (unknown origin). It is filed as protein-complex assay.
Test [4] has as its target T1, Muscarinic acetylcholine receptor M5 (Homo sapiens, UniProt P08912).
T1 sequence (P08912 whole entry): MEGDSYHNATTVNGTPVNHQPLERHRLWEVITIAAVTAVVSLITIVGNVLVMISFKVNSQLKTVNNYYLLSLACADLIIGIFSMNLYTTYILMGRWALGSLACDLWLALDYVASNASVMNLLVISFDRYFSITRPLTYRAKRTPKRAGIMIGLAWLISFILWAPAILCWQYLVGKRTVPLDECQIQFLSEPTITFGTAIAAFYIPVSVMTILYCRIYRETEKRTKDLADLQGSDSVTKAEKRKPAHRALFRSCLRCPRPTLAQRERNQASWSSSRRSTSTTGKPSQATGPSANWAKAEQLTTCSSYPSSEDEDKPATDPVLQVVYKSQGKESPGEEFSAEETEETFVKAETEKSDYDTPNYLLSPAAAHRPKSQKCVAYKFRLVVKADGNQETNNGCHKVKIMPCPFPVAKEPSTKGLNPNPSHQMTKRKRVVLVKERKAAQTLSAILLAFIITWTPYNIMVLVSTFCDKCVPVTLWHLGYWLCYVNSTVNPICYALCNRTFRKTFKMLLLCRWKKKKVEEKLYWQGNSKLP
The test can be described thus: Displacement of [3H]NMS from human muscarinic M5 receptor expressed in CHO cells. Background: In a radioligand displacement assay an active substance lowers the binding of a labelled ligand.

Test [5] has as its target T2, Muscarinic acetylcholine receptor M4 (Homo sapiens, UniProt P08173).
T2 sequence (P08173 whole entry): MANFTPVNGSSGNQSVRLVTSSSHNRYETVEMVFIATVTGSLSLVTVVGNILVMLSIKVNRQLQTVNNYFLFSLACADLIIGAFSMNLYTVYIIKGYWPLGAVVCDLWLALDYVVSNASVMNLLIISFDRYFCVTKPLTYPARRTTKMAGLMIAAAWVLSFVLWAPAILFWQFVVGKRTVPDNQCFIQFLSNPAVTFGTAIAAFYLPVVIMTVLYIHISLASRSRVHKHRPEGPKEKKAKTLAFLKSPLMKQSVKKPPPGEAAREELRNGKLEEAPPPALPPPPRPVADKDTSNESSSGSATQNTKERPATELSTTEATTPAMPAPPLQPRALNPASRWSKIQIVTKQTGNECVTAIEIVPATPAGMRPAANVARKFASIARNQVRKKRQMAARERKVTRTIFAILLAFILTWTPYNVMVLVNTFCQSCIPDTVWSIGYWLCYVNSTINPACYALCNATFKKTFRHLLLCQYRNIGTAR
Nature of the test: Displacement of [3H]NMS from human muscarinic M4 receptor expressed in CHO cells.

For test [6], the target named is Muscarinic acetylcholine receptor M3 (Homo sapiens, UniProt P20309). The test can be described thus: Displacement of [3H]NMS from human muscarinic M3 receptor expressed in CHO cells.
In test [7] the target is T3, Muscarinic acetylcholine receptor M1 (Homo sapiens, UniProt P11229).
T3 sequence (P11229 whole entry): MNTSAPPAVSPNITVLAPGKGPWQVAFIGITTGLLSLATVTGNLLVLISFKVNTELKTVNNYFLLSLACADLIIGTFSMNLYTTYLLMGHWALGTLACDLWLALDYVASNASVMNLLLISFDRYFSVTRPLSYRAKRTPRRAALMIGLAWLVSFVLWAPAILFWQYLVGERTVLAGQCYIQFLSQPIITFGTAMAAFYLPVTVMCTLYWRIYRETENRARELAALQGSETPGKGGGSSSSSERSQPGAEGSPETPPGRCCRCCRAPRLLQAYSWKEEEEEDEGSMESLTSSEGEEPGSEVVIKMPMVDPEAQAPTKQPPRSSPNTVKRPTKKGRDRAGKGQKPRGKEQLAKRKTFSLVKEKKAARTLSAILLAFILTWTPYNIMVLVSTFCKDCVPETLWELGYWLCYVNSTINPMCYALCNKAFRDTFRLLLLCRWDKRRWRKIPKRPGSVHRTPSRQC
Nature of the test: Displacement of [3H]NMS from human muscarinic M1 receptor expressed in CHO cells.

Test [8] addresses T4, Muscarinic acetylcholine receptor M2 (Homo sapiens, UniProt P08172).
T4 sequence (P08172 whole entry): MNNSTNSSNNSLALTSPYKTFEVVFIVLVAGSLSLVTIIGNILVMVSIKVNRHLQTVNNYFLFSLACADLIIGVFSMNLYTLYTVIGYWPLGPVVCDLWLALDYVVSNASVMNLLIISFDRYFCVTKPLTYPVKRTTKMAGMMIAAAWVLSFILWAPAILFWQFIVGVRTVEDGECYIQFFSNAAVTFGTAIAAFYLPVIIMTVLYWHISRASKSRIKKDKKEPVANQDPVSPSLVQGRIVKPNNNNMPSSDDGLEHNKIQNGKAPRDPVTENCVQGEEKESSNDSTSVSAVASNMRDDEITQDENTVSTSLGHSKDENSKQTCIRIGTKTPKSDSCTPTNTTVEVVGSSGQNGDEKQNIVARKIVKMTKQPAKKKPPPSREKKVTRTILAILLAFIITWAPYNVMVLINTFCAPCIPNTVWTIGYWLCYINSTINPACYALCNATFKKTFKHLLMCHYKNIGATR
Nature of the test: Displacement of [3H]NMS from human muscarinic M2 receptor expressed in CHO cells.

Test [9] has as its target Neuronal acetylcholine receptor subunit alpha-7 (Rattus norvegicus, UniProt Q05941). Nature of the test: Displacement of [125I]-alpha-bungarotoxin from alpha7 nAChR in rat hippocampus membranes. It is filed as cell membranes, Membrane.
For test [10], the target named is Neuronal acetylcholine receptor; alpha4/beta2 (Rattus norvegicus, UniProt P09483+P12390). The test can be described thus: Displacement of [3H]-epibatidine from alpha4beta2 nAChR in rat cortex hippocampus. It is filed as tissue-based.

SMILES strings stand for the structures. pKi: −log10 of the molar value. Bounds are passed on as bounds.

Neuronal acetylcholine receptor; alpha4/beta2 (Homo sapiens, UniProt P17787+P43681), sequence (P17787 whole entry): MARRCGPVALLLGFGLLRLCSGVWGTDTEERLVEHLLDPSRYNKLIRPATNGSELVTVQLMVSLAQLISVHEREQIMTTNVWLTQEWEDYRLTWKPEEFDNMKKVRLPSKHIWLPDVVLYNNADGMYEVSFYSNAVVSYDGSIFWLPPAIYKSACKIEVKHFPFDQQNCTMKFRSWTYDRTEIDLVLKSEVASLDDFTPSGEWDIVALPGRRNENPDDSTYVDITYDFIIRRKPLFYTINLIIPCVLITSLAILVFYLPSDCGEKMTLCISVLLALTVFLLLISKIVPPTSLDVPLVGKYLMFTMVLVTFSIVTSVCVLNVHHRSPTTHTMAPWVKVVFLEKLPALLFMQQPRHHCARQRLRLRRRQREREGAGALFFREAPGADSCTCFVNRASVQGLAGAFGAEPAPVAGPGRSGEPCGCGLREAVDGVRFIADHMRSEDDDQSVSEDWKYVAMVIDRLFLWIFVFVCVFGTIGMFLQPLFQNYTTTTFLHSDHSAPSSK
Neuronal acetylcholine receptor; alpha4/beta2 (Homo sapiens, UniProt P17787+P43681), sequence (P43681 whole entry): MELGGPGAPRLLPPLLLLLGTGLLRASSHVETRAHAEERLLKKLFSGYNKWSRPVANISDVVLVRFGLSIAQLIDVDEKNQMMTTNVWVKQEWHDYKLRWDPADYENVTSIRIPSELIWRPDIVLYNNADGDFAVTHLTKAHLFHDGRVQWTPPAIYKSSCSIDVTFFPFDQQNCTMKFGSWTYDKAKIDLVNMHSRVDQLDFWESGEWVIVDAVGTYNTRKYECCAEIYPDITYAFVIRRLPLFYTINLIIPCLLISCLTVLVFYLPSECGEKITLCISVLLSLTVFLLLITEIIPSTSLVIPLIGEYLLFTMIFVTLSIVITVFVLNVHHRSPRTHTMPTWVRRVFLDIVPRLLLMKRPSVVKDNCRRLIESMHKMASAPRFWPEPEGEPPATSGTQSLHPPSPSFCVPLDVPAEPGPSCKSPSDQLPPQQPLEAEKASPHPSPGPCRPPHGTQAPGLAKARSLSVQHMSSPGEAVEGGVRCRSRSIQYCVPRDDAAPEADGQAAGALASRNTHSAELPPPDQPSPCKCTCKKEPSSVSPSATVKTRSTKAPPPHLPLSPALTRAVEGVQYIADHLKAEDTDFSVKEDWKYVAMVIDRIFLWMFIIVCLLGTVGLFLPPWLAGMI
Neuronal acetylcholine receptor; alpha4/beta2 (Rattus norvegicus, UniProt P09483+P12390), sequence (P09483 whole entry): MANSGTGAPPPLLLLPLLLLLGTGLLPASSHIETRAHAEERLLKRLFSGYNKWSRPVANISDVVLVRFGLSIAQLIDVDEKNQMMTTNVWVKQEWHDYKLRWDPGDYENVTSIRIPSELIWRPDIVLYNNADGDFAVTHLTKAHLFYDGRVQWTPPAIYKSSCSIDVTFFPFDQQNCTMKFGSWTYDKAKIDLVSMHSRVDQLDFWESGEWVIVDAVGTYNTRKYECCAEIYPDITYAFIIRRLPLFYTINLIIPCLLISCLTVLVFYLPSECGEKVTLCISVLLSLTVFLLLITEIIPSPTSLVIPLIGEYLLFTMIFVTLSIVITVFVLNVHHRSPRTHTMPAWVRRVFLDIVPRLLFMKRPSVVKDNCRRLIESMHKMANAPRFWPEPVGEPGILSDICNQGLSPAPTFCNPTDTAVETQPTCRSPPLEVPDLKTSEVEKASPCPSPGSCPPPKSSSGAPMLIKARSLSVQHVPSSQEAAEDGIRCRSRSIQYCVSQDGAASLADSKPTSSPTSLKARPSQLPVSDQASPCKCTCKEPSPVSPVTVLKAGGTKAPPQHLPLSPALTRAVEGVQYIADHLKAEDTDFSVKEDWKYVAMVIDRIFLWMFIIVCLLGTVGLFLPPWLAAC
Neuronal acetylcholine receptor; alpha4/beta2 (Rattus norvegicus, UniProt P09483+P12390), sequence (P12390 whole entry): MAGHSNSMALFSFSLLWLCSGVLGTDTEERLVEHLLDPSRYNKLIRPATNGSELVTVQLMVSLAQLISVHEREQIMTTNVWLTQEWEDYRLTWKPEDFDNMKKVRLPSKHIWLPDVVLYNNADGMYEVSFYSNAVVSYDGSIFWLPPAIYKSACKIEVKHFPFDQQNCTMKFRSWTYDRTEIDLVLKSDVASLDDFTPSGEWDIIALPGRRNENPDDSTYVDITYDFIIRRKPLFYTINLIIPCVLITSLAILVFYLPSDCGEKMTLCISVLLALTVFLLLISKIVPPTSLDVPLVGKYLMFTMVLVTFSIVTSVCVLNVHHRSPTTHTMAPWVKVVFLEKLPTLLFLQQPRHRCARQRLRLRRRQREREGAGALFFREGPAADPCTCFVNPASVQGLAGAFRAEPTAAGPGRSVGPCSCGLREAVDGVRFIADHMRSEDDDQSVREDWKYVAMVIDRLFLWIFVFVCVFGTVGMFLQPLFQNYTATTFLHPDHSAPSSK
Neuronal acetylcholine receptor subunit alpha-7 (Rattus norvegicus, UniProt Q05941), sequence (Q05941 whole entry): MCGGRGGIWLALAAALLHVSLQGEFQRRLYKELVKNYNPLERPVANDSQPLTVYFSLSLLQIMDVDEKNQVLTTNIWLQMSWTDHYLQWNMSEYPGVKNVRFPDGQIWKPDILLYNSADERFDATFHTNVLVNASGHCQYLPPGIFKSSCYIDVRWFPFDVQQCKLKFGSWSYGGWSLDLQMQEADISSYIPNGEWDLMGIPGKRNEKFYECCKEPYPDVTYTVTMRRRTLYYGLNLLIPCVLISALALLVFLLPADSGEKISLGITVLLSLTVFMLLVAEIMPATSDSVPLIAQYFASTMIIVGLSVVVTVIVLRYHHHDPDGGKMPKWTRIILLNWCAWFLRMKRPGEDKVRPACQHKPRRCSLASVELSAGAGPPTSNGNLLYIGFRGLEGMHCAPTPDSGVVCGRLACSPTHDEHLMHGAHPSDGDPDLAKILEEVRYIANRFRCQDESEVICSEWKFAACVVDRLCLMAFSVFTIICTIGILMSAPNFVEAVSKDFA
Muscarinic acetylcholine receptor M3, sequence (P20309 whole entry): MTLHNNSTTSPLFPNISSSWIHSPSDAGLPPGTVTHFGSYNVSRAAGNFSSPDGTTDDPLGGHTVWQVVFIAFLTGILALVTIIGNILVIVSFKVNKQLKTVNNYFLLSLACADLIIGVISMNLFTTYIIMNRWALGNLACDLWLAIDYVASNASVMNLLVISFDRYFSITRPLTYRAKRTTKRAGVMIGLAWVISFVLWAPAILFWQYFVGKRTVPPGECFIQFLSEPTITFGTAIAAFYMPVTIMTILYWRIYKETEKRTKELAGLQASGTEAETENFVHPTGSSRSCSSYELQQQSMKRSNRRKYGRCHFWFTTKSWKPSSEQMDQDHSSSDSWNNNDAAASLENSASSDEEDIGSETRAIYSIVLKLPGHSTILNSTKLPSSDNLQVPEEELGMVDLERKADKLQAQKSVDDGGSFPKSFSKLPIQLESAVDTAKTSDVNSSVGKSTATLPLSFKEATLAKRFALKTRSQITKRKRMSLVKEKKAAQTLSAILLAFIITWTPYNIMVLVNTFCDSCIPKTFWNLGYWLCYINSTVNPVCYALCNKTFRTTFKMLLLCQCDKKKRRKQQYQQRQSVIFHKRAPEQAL
Neuronal acetylcholine receptor subunit alpha-7 (Homo sapiens, UniProt P36544), sequence (P36544 whole entry): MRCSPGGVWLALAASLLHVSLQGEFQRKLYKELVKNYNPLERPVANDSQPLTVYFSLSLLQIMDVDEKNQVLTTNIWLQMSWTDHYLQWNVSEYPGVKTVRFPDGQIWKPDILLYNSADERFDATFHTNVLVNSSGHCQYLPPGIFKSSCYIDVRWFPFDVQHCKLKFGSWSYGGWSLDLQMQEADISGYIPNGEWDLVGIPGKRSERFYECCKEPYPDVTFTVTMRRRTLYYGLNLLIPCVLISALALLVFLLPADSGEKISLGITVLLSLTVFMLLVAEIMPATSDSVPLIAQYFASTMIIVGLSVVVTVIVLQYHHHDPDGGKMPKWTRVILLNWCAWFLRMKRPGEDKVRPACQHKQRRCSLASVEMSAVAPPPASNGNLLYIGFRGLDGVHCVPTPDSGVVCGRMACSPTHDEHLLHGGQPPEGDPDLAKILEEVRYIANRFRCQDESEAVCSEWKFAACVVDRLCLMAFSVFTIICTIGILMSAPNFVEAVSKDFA

As for `CNC(=O)OCC[N+](C)(C)C`, in test [1], the Ki turned out to be 0.15 µM. Further, the values for the pKi in test [2] and in [3] were 4.36 and 7.64, respectively.

On to `CN1CCC[C@H]1[C@H]1CNC(=O)O1`, for which the pKi in test [4], in test [5], in test [6], in test [7] and in [8] was less than 4.00 throughout.

`CN(C)C(=O)OCC[N+](C)(C)C` returned a Ki in test [1] of 1.2 µM. For the same molecule, the pKi in test [3] was 7.70.

Consider `CN(C)C[C@H]1CN(C)C(=O)O1`, for which the pKi was less than 4.00 in [4]; less than 4.00 in test [5]; less than 4.00 in test [6]; less than 4.00 in test [7]; less than 4.00 in [8]; 3.80 in [9]. Moreover, the negative logarithm of the Ki (pKi) in test [10] was 5.66.

Regarding `CN(C)C[C@@H]1CN(C)C(=O)O1`, the pKi is less than 4.00 in test [4]; less than 4.00 in test [5]; less than 4.00 in test [6]; less than 4.00 in [7]; less than 4.00 in [8]; 3.35 in [9]. The molecule further gave a pKi in test [10] of 5.58.

Regarding `CN1C[C@@H](C[N+](C)(C)C)OC1=O`, the pKi in test [4] was less than 4.00; in test [5], less than 4.00; in test [6], less than 4.00; in test [7], less than 4.00; in test [8], less than 4.00; in [9] it was 4.52. Further, the pKi in test [10] is 5.44.

Turning to `CN1C[C@H](C[N+](C)(C)C)OC1=O`, the pKi was less than 4.00 in [4]; less than 4.00 in test [5]; less than 4.00 in test [6]; less than 4.00 in test [7]; less than 4.00 in [8]; 4.73 in [9]. This molecule gave a pKi in test [10] of 5.51.

For `CN(C)C[C@@H]1CNC(=O)O1`, the pKi in [4] was less than 4.00; in test [5], less than 4.00; in test [6], less than 4.00; in [7], less than 4.00; in [8] it was less than 4.00; in test [9] it was 4.03. For the same molecule, in test [10], the pKi was 6.34.

As for `CN(C)C[C@H]1CNC(=O)O1`, the negative logarithm of the Ki (pKi) in test [4] is less than 4.00; in test [5] it was less than 4.00; in test [6], less than 4.00; in test [7], less than 4.00; in test [8], less than 4.00; in test [9], 4.39. The same molecule had a pKi in test [10] of 6.35.

As for `C[N+](C)(C)C[C@@H]1CNC(=O)O1`, the pKi is less than 4.00 in [4]; less than 4.00 in [5]; less than 4.00 in test [6]; less than 4.00 in test [7]; less than 4.00 in test [8]; 4.35 in [9]. In test [10], this molecule had a pKi of 6.37.

As for `C[N+](C)(C)C[C@H]1CNC(=O)O1`, the pKi in test [4] was less than 4.00; in test [5] it was less than 4.00; in test [6], less than 4.00; in [7], less than 4.00; in test [8] it was less than 4.00; in [9] it was 4.33. In test [10], this molecule gave a pKi of 6.40.

In the case of `CN1CCC[C@H]1COC(N)=O`, the pKi in test [4] was less than 4.00; in [5] it was less than 4.00; in test [6], less than 4.00; in [7], less than 4.00; in test [8], less than 4.00; in test [9], 4.11. Also, in [10], the pKi was 6.16.

Take `C[N+]1(C)CCC[C@H]1COC(N)=O`: the pKi was less than 4.00 in [4]; less than 4.00 in test [5]; less than 4.00 in test [6]; less than 4.00 in [7]; less than 4.00 in test [8]; 5.74 in test [9]. Further, in [10], the pKi is 5.97.

As for `CN1CCC[C@H]1[C@@H]1COC(=O)N1`, the pKi in test [4] is less than 4.00; in [5], less than 4.00; in [6] it was less than 4.00; in test [7] it was less than 4.00; in test [8], less than 4.00; in test [9] it was 4.19. Moreover, the pKi in test [10] is 5.05.

In the case of `CN1CCC[C@H]1[C@H]1COC(=O)N1`, the pKi in [4] is less than 4.00; in test [5], less than 4.00; in test [6], less than 4.00; in test [7], less than 4.00; in test [8], less than 4.00; in [9] it was 4.30. Further, the pKi in [10] is 4.85.

Take `CN1CCC[C@H]1[C@@H]1CNC(=O)O1`: the pKi in [4], in [5], in [6], in [7] and in test [8] was less than 4.00 each time.

`CN(C)CCOC(=O)N(C)C` [2-(DIMETHYLAMINO)ETHYL DIMETHYLCARBAMATE] showed an inhibition constant Ki in test [1] of 18 µM. The pKi in test [3] was 5.24.

On to `CC(C[N+](C)(C)C)OC(N)=O` (stereo not drawn) [BETHANECHOL], for which the Ki in test [1] came to 0.097 µM.

The molecule `C[N+](C)(C)CCOC(N)=O` [CARBAMOYLCHOLINE] gave a pKi in [2] of 4.18.
